From patent KR20080021588A, “메카노 성장 인자 펩티드 및 이들의 용도” (유씨엘 비즈니스 피엘씨, priority 2005, dated 2006) come the findings set out here.

Test [1] concerns C2C12 근육 세포. Briefly: C2C12 cell proliferation assay (BrdU incorporation). The test is classed as cell-based, mouse. To be noted: 0.1, 1, 10 and 100 ng/ml; 500 cells/well; 24 h stimulation, 5 h BrdU.
Another test deals with 단핵성 근육모세포 (수반 세포). In words: Biological activity: induction of mononucleated myoblast replication (Alamar Blue). The test is classed as cell-based. More on the design: key to biological activity score (scale 0 to 3): 0: 6시간에서 측정가능한 세포 수 증가 없음; 1: 4시간에서 유의한 세포 수 증가; 2시간에서 유의한 세포 수 증가; 3: 1시간에서 유의한 세포 수 증가. To be noted: cell number by Alamar Blue.
The next test concerns 래트 기관형적 해마 배양물. Briefly: In vitro neuroprotection against TBH oxidative stress in organotypic hippocampal slices (PI staining). The test is classed as cell-based, Wistar rat. To be noted: 100 ng/ml.
The next test deals with 정상 두개안면 (교근) 초대 배양물. In words: Myogenic progenitor (desmin-positive) cell proliferation, normal craniofacial muscle primary culture. To be noted: normal craniofacial (masseter); peptide 10 ng/ml alone; untreated 49.8±2.4%. Format: cell-based, human.
In a further test the test system is ALS 사지. In words: Myogenic progenitor (desmin-positive) cell proliferation, ALS muscle primary culture. Format: cell-based, human. To be noted: peptide 10 ng/ml alone, untreated 4.8±1.1%.
The test system of the next test is 뇌 허혈의 게르빌루스쥐 모델. Briefly: Neuroprotection in gerbil model of brain ischaemia (surviving CA1 neurons). Format: in vivo, Mongolian gerbil. To be noted: 25 µg injection, 7 days after ischaemic insult.
For a further test, the system named is FSHD 사지. In words: Myogenic progenitor (desmin-positive) cell proliferation, FSHD muscle primary culture. Format: cell-based, human. To be noted: peptide 10 ng/ml alone, untreated 11.7±1.3%.
The subject of the next test is HSMM 세포. Briefly: Human primary cell (HSMM) proliferation assay (BrdU incorporation). Format: cell-based. To be noted: 48 h; A5 at doses up to 10 ng/ml (P < 0.1); IGF-I alone at any dose.
The subject of a further test is mdx 마우스의 근이영양성 근육. In words: Tetanic force of dystrophic muscle after intramuscular injection in mdx mice. Format: in vivo, mouse. To be noted: i.m. twice weekly for 3 weeks.
A further test relates to 경색된 양 심장. Briefly: Cardioprotection after myocardial infarction in sheep (ejection fraction by echocardiography). To be noted: intracoronary injection 15 min after infarction, day 6 vs day before procedure. Format: in vivo.
Test [2] concerns C2C12 근육 세포. In words: C2C12 cell proliferation assay (Alamar Blue). Format: cell-based, mouse. To be noted: 2, 5, 50 and 100 ng/ml; 2000 cells/well; medium with IGF-I 2 ng/ml; 36 h; vs medium-only control.
Another test has as its system 정상 하지 (사두근) 초대 배양물. In words: Myogenic progenitor (desmin-positive) cell proliferation, normal limb muscle primary culture. The test is classed as cell-based, human. To be noted: normal limb (quadriceps); peptide 10 ng/ml alone; untreated 38.4±2.5%.
The subject of test [3] is 선천성 근이영양증 (CMD)에서 유래된 초대 배양물. In words: Myogenic progenitor (desmin-positive) cell proliferation, CMD muscle primary culture. The test is classed as cell-based, human. To be noted: peptide 10 ng/ml alone, untreated 10.4±1.7%.
Another test deals with 초대 인간 근육 세포 배양물. In words: Creatine phosphokinase (CPK) assay of myogenic differentiation / myotube formation. To be noted: peptide alone in differentiation medium, 48 h; IGF-I at 10 ng/ml. Format: cell-based, human.

Where no end group is shown, it is not given here.

Turning to GSTFEEHK [펩티드 A8], the “induction of C2C12 cell proliferation (BrdU incorporation)” value in the test with C2C12 근육 세포 [1] is on record as “세포 증식을 유도하였다”.
On to GSTFEERK [펩티드 A2], for which the “induction of C2C12 cell proliferation (BrdU incorporation)” value with C2C12 근육 세포 [1] was “세포 증식을 유도하였다”.
As for YQPPSTNKNTKSQAAKGSTFEEHK [펩티드 6], the “biological activity score (scale 0 to 3)” value in the test with 단핵성 근육모세포 (수반 세포) is 0.
Regarding YQPPSTNKNTKSQRRKGATFEEHK [펩티드 4], in the test on 단핵성 근육모세포 (수반 세포), the “biological activity score (scale 0 to 3)” value turned out to be 2.
“YQPPSTNKNTKSQRRKGSTFEEHK [펩티드 1, human Ec peptide variant with His instead of Arg at penultimate position; no PEG, no L-D conversion]”: the “biological activity (in words)” value with 단핵성 근육모세포 (수반 세포) was “활성을 거의 또는 전혀 나타내지 않았다”.
“IGF-I: IGF-I receptor binding domain encoded by exons 3 and 4, about 70 amino acids; from PeproTech or Sigma-Aldrich”: the “protection against TBH-induced cell death” value with 래트 기관형적 해마 배양물 (TBH 3 h, CA1 region, 24 h) is 72 %. Besides, the “time over which the neuroprotective effect was marked” value with 래트 기관형적 해마 배양물 (cell death assessed 24 h and 48 h after start) is given as ≤ 24 시간. The “desmin-positive cells as % of total (DAPI-positive) cells” value in the test on 정상 두개안면 (교근) 초대 배양물 is 58.4±4.2 %; in the test on ALS 사지 it was 4.7±1.4 %; in the test with FSHD 사지, 14.1±1.6 %; in the test with 정상 하지 (사두근) 초대 배양물 it was 47.1±3.5 %; in [3], 13.2±1.7 %. Moreover, the “surviving CA1 neurons as % of control neuron number, side not stated” value with 뇌 허혈의 게르빌루스쥐 모델 is recorded as 15.8 %. In addition, the “surviving CA1 neurons, side not stated” value in the test with 뇌 허혈의 게르빌루스쥐 모델 (n=5) was 19.2 ± 7.3 개. The “effect on HSMM proliferation (BrdU incorporation), used alone” value with HSMM 세포 is recorded as “유의한 효과가 없었다”. Also, the “increase in tetanic force of dystrophic muscle” value in the test with mdx 마우스의 근이영양성 근육 is reported as ~5 %. Besides, in the test with 경색된 양 심장, the “effect on ejection fraction and percentage of viable myocardium after MI” value was “더욱 작은 효과”. In the test with C2C12 근육 세포 [2], the “induction of C2C12 cell proliferation (Alamar Blue fluorescence)” value is “통계학적으로 상이하였다”. In addition, the “effect on primary myoblast differentiation and myotube formation (CPK)” value in the test with 초대 인간 근육 세포 배양물 is listed as “근관 형성을 명백하게 자극한다”.
Consider “YQPPSTNKNTKSQARKGSTFEE [짧은 펩티드 1, Arg14→Ala, two C-terminal amino acids removed]”, for which, in the test with 단핵성 근육모세포 (수반 세포), the “biological activity score (scale 0 to 3)” value was 1.
On the same count and under the same terms, next, “YQPPSTNKNTKSQARKGSTF [짧은 펩티드 2, Arg14→Ala, four C-terminal amino acids removed]”: 0.
With GSTFEEHK [DMGF], in the test on C2C12 근육 세포 [2], the “induction of C2C12 cell proliferation (Alamar Blue fluorescence)” value is on record as “세포 증식을 유도하였다”.
Turning to “TNKNTKSQARKGSTFEEHK [짧은 펩티드 4, Arg14→Ala, five N-terminal amino acids removed]”, in the test with 단핵성 근육모세포 (수반 세포), the “biological activity score (scale 0 to 3)” value worked out at 0.
The same measure, in the same setting: next, YQPPATNKNTKSQRRKGSTFEEHK [펩티드 2]: 1.
On to YQPPSTNKNTKSQARKGSTFEEHK [펩티드 5], for which the “biological activity score (scale 0 to 3)” value with 단핵성 근육모세포 (수반 세포) is reported as 2.
As to “PSTNKNTKSQARKGSTFEEHK [짧은 펩티드 3, Arg14→Ala, three N-terminal amino acids removed]”, the “biological activity score (scale 0 to 3)” value with 단핵성 근육모세포 (수반 세포) stood at 0.
On the same count and under the same terms, next, YQPPSTNKNTKAQRRKGSTFEEHK [펩티드 3]: 3.
